Patent publication US20250304567A1, “PYRROLIDIONE DERIVATIVES AS INHIBITORS OF NF KAPPA B INDUCING KINASE” (priority 2022, published 2025)
Where two headings read alike, the source gives them in different places.

Legend:
[1] = target: Recombinant Human NF-kappaB-Inducing Kinase (NIK/MAP3K14) (Homo sapiens, UniProt Q99558); test: Inhibition of auto-phosphorylation of recombinant human NIK/MAP3K14 activity (AlphaScreen); format: biochemical; conditions: 5 μM ATP, 1 nM NIK, average if tested more than once
Method in brief: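 GST-tagged NIK (1 nM) auto-phosphorylation with 5 μM ATP, 2 h at 25 °C, pH 7.5 Tris buffer, 0.7% DMSO; stopped with anti-phospho-IKK Ser176/180 antibody and read by AlphaScreen. Signal normalized to full-activity and no-enzyme/no-ATP controls; IC50 from sigmoidal fit of % inhibition vs log concentration.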

[2] = tested on: p-IKKa levels in L363 (NIK translocated multiple myeloma) cells; test: Effect of compounds on p-IKKa levels in L363 (NIK translocated multiple myeloma) cells (AlphaLISA SureFire Ultra p-IKKa Ser176/180); format: cell-based, human; conditions: average if tested more than once, read-out: Assay 2 IC50
Method in brief: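 L363 multiple myeloma cells, BAFF-stimulated overnight (250 ng/ml), then 6 h at 37 °C with compound (11-point 1:3 series, 0.3% DMSO) plus BAFF and 10 μM MG132. p-IKKa Ser176/180 read by AlphaLISA SureFire Ultra; IC50 from sigmoidal fit normalised to stimulated and unstimulated controls.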

[3] = Homo sapiens, L-363, p-IKKa levels in L363 cells

Chain of Recombinant Human NF-kappaB-Inducing Kinase (NIK/MAP3K14) (Q99558 whole entry): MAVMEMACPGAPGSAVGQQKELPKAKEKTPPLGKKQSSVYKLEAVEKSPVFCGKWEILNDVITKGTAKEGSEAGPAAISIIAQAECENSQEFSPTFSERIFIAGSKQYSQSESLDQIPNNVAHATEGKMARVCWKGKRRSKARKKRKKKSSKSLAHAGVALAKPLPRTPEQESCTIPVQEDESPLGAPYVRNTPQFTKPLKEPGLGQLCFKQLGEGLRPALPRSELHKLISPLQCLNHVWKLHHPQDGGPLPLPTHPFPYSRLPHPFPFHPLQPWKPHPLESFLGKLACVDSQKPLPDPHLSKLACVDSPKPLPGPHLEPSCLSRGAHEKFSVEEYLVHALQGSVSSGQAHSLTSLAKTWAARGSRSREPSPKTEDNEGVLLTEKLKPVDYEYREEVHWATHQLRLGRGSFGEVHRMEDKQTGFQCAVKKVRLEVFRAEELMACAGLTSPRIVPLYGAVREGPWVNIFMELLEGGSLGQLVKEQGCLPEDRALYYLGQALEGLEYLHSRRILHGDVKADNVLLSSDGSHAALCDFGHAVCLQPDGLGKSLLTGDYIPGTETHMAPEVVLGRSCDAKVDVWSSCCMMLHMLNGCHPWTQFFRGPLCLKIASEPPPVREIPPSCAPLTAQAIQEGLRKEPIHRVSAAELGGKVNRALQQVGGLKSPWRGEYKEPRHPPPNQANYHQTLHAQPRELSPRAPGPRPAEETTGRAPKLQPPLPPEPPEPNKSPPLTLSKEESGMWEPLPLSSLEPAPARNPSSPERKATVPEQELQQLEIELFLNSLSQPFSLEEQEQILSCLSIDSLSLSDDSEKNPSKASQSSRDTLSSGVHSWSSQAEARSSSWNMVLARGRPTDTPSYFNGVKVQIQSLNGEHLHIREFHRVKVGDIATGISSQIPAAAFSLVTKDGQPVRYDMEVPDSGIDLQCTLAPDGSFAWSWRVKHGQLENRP

Compound: CCc1cc(Nc2nccc(-c3csc(-c4cccc([C@]5(O)CCN(C)C5=O)c4)n3)n2)ncn1 [Example 70, (R)-3-(3-(4-(2-((6-ethylpyrimidin-4-yl)amino)pyrimidin-4-yl)thiazol-2-yl)phenyl)-3-hydroxy-1-methylpyrrolidin-2-one]
- IC50 [1]: < 100 nM
- IC50 [2, 3]: > 501 nM

Compound: CNC(=O)c1cc(Nc2nccc(-c3csc(-c4cccc([C@]5(O)CCN(C)C5=O)c4)n3)n2)c(OC2CC2)cc1F [Example 12, (R)-4-Cyclopropoxy-2-fluoro-5-((4-(2-(3-(3-hydroxy-1-methyl-2-oxopyrrolidin-3-yl)phenyl)thiazol-4-yl)pyrimidin-2-yl)amino)-N-methylbenzamide]
- IC50 [1]: < 100 nM
- IC50 [2, 3]: 100 to 500 nM

Compound: CN1CC[C@@](O)(c2ccnc(-c3ccn(-c4ccnc(Nc5ccn(C)n5)n4)n3)c2)C1=O (racemic) [Example 30, (R,S)-3-Hydroxy-1-methyl-3-(2-(1-(2-((1-methyl-1H-pyrazol-3-yl)amino)pyrimidin-4-yl)-1H-pyrazol-3-yl)pyridin-4-yl)pyrrolidin-2-one]
- IC50 [1]: < 100 nM
- IC50 [2, 3]: 100 to 500 nM

Compound: CC(=O)N1CC[C@H](Nc2nccc(-c3csc(-c4cccc([C@]5(O)CCN(C)C5=O)c4)n3)n2)C1 [Example 221]
- IC50 [1]: 100 to 500 nM
- IC50 [2, 3]: > 501 nM

Compound: CN1CCC(Nc2nccc(-c3csc(-c4cccc([C@]5(O)CCN(C)C5=O)c4)n3)n2)C1=O (stereo partly shown) [Example 201]
- IC50 [1]: > 501 nM
- IC50 [2, 3]: > 501 nM

Compound: Cc1ncc(Nc2nccc(-c3csc(-c4cccc([C@]5(O)CCN(C)C5=O)c4)n3)n2)s1 [Example 249]
- IC50 [1]: > 501 nM
- IC50 [2, 3]: > 501 nM

Compound: CN1CC[C@@](O)(c2cccc(-c3nc(-c4ccnc(Nc5ccn(CCO)n5)n4)cs3)c2)C1=O [Example 286, (R)-3-hydroxy-3-(3-(4-(2-((1-(2-hydroxyethyl)-1H-pyrazol-3-yl)amino)pyrimidin-4-yl)thiazol-2-yl)phenyl)-1-methylpyrrolidin-2-one]
- IC50 [1]: < 100 nM
- IC50 [2, 3]: 100 to 500 nM

Compound: C[C@@H](Nc1nccc(-n2ccc(-c3cccc([C@]4(O)CCN(C)C4=O)c3)n2)n1)c1ccnn1C (single isomer, unassigned) [Example 92]
- IC50 [1]: < 100 nM
- IC50 [2, 3]: < 100 nM

Compound: CN1CC[C@@](O)(c2cccc(-c3ccn(-c4ccnc(Nc5ccn(C)n5)n4)n3)c2)C1=O [Example 2, (R)-3-hydroxy-1-methyl-3-(3-(1-(2-((1-methyl-1H-pyrazol-3-yl)amino)pyrimidin-4-yl)-1H-pyrazol-3-yl)phenyl)pyrrolidin-2-one]
- IC50 [1]: < 100 nM
- IC50 [2, 3]: 100 to 500 nM

Compound: C[C@H](Nc1nccc(-c2nc(-c3cc([C@]4(O)CCN(C)C4=O)ccn3)cs2)n1)c1ccnn1C [Example 290, (R)-3-Hydroxy-1-methyl-3-(2-(2-(2-(((S)-1-(1-methyl-1H-pyrazol-5-yl)ethyl)amino)pyrimidin-4-yl)thiazol-4-yl)pyridin-4-yl)pyrrolidin-2-one]
- IC50 [1]: < 100 nM
- IC50 [2, 3]: 100 to 500 nM

Compound: Cc1cnc(CNc2nccc(-c3csc(-c4cccc([C@]5(O)CCN(C)C5=O)c4)n3)n2)o1 [Example 200]
- IC50 [1]: < 100 nM
- IC50 [2, 3]: > 501 nM

Compound: CN1CC[C@@](O)(c2cccc(-c3nc(-c4ccnc(NCc5ccccn5)n4)cs3)c2)C1=O [Example 182]
- IC50 [1]: 100 to 500 nM
- IC50 [2, 3]: > 501 nM

Compound: CN1CC[C@@](O)(c2cccc(-c3nc(-c4ccnc(Nc5cccnc5OC(F)F)n4)cs3)c2)C1=O [Example 282, (R)-3-(3-(4-(2-((2-(Difluoromethoxy)pyridin-3-yl)amino)pyrimidin-4-yl)thiazol-2-yl)phenyl)-3-hydroxy-1-methylpyrrolidin-2-one]
- IC50 [1]: < 100 nM
- IC50 [2, 3]: 100 to 500 nM

Compound: CNC(=O)c1cc(Nc2nccc(-c3csc(-c4cccc([C@]5(O)CCN(C)C5=O)c4)n3)n2)n(C2CCCC2)n1 [Example 15, (R)-1-Cyclopentyl-5-((4-(2-(3-(3-hydroxy-1-methyl-2-oxopyrrolidin-3-yl)phenyl)thiazol-4-yl)pyrimidin-2-yl)amino)-N-methyl-1H-pyrazole-3-carboxamide]
- IC50 [1]: < 100 nM
- IC50 [2, 3]: 100 to 500 nM

Compound: CN1CC[C@@](O)(c2cccc(-c3nc(-c4ccnc(Nc5cccnc5C(F)(F)F)n4)cs3)c2)C1=O [Example 166, (R)-3-Hydroxy-1-methyl-3-(3-(4-(2-((2-(trifluoromethyl)pyridin-3-yl)amino)pyrimidin-4-yl)thiazol-2-yl)phenyl)pyrrolidin-2-one]
- IC50 [1]: < 100 nM
- IC50 [2, 3]: > 501 nM

Compound: COc1nn(CC(F)F)cc1Nc1nccc(-n2ccc(-c3cc([C@]4(O)CCN(C)C4=O)ccn3)n2)n1 (single isomer, unassigned) [Example 155, (R)-3-(2-(1-(2-((1-(2,2-difluoroethyl)-3-methoxy-1H-pyrazol-4-yl)amino)pyrimidin-4-yl)-1H-pyrazol-3-yl)pyridin-4-yl)-3-hydroxy-1-methylpyrrolidin-2-one or (S)-3-(2-(1-(2-((1-(2,2-difluoroethyl)-3-methoxy-1H-pyrazol-4-yl)amino)pyrimidin-4-yl)-1H-pyrazol-3-yl)pyridin-4-yl)-3-hydroxy-1-methylpyrrolidin-2-one]
- IC50 [1]: < 100 nM
- IC50 [2, 3]: < 100 nM

Compound: CN1CC[C@@](O)(c2cccc(-c3nc(-c4ccnc(Nc5cccc(OC(F)F)n5)n4)cs3)c2)C1=O [Example 168, (R)-3-(3-(4-(2-((6-(Difluoromethoxy)pyridin-2-yl)amino)pyrimidin-4-yl)thiazol-2-yl)phenyl)-3-hydroxy-1-methylpyrrolidin-2-one]
- IC50 [1]: < 100 nM
- IC50 [2, 3]: > 501 nM

Compound: CN1CC[C@@](O)(c2cccc(-c3nc(-c4ccnc(NC5CCN(S(C)(=O)=O)CC5)n4)cs3)c2)C1=O [Example 47, (R)-3-Hydroxy-1-methyl-3-(3-(4-(2-((1-(methylsulfonyl)piperidin-4-yl)amino)pyrimidin-4-yl)thiazol-2-yl)phenyl)pyrrolidin-2-one]
- IC50 [1]: < 100 nM
- IC50 [2, 3]: > 501 nM

Compound: COCCn1cc(Nc2nccc(-c3csc(-c4cccc([C@]5(O)CCN(C)C5=O)c4)n3)n2)cn1 [Example 265, (R)-3-Hydroxy-3-(3-(4-(2-((1-(2-methoxyethyl)-1H-pyrazol-4-yl)amino)pyrimidin-4-yl)thiazol-2-yl)phenyl)-1-methylpyrrolidin-2-one]
- IC50 [1]: < 100 nM
- IC50 [2, 3]: 100 to 500 nM

Compound: CN1CC[C@@](O)(c2cccc(-c3nc(-c4ccnc(N[C@H]5CC[C@@H](O)C5)n4)cs3)c2)C1=O [Example 253]
- IC50 [1]: < 100 nM
- IC50 [2, 3]: > 501 nM

Compound: CN1CCC(O)(c2cc(C#N)cc(-c3csc(-c4ccnc(Nc5ccn(C)n5)n4)n3)c2)C1=O (single isomer, unassigned) [Example 57, 3-(3-hydroxy-1-methyl-2-oxopyrrolidin-3-yl)-5-(2-(2-((1-methyl-1H-pyrazol-3-yl)amino)pyrimidin-4-yl)thiazol-4-yl)benzonitrile]
- IC50 [1]: < 100 nM
- IC50 [2, 3]: > 501 nM

Compound: CC(Nc1nccc(-c2csc(-c3cccc([C@]4(O)CCN(C)C4=O)c3)n2)n1)c1cnn(C)c1 (stereo partly drawn) [Example 121, (R)-3-hydroxy-1-methyl-3-(3-(4-(2-(((R,S)-1-(1-methyl-1H-pyrazol-4-yl)ethyl)amino)pyrimidin-4-yl)thiazol-2-yl)phenyl)pyrrolidin-2-one]
- IC50 [1]: < 100 nM
- IC50 [2, 3]: 100 to 500 nM

Compound: CCn1ccc(Nc2nccc(-c3csc(-c4cccc([C@]5(O)CCN(C)C5=O)c4)n3)n2)n1 [Example 76, (R)-3-(3-(4-(2-((1-ethyl-1H-pyrazol-3-yl)amino)pyrimidin-4-yl)thiazol-2-yl)phenyl)-3-hydroxy-1-methylpyrrolidin-2-one]
- IC50 [1]: < 100 nM
- IC50 [2, 3]: 100 to 500 nM

Compound: CN1CC[C@@](O)(c2cccc(-c3nc(-c4ccnc(Nc5cnn(C6CC6)c5)n4)cs3)c2)C1=O [Example 263, (R)-3-(3-(4-(2-((1-Cyclopropyl-1H-pyrazol-4-yl)amino)pyrimidin-4-yl)thiazol-2-yl)phenyl)-3-hydroxy-1-methylpyrrolidin-2-one]
- IC50 [1]: < 100 nM
- IC50 [2, 3]: 100 to 500 nM

Compound: (trans)-3-hydroxy-1-methyl-3-(3-(4-(2-((1-methyl-1H-pyrazol-3-yl)amino)pyrimidin-4-yl)thiazol-2-yl)phenyl)-5-(trifluoromethyl)pyrrolidin-2-one [Example 37]
- IC50 [1]: > 501 nM
- IC50 ([2]; p-IKKa levels in L363 cells): > 501 nM

Compound: CN1CC[C@@](O)(c2cccc(-c3nc(-c4ccnc(Nc5cnn(C6CCC6)c5)n4)cs3)c2)C1=O [Example 73, (R)-3-(3-(4-(2-((1-cyclobutyl-1H-pyrazol-4-yl)amino)pyrimidin-4-yl)thiazol-2-yl)phenyl)-3-hydroxy-1-methylpyrrolidin-2-one]
- IC50 [1]: < 100 nM
- IC50 [2, 3]: 100 to 500 nM

Compound: CC(C)Oc1nn(C)cc1Nc1nccc(-c2csc(-c3cccc([C@]4(O)CCN(C)C4=O)c3)n2)n1 [Example 100, (R)-3-hydroxy-3-(3-(4-(2-((3-isopropoxy-1-methyl-1H-pyrazol-4-yl)amino)pyrimidin-4-yl)thiazol-2-yl)phenyl)-1-methylpyrrolidin-2-one]
- IC50 [1]: < 100 nM
- IC50 [2, 3]: < 100 nM

Compound: Cc1cccnc1CNc1nccc(-c2csc(-c3cccc([C@]4(O)CCN(C)C4=O)c3)n2)n1 [Example 206]
- IC50 [1]: < 100 nM
- IC50 [2, 3]: > 501 nM

Compound: COc1cccnc1Nc1nccc(-c2csc(-c3cccc([C@]4(O)CCN(C)C4=O)c3)n2)n1 [Example 161, (R)-3-Hydroxy-3-(3-(4-(2-((3-methoxypyridin-2-yl)amino)pyrimidin-4-yl)thiazol-2-yl)phenyl)-1-methylpyrrolidin-2-one]
- IC50 [1]: > 501 nM
- IC50 [2, 3]: > 501 nM
